Where two headings read alike, the source gives them in different places. Numbered stars: 1 amine (or outer) side, 2 acyl side, 3 side chain; on linkers, the order of the positions; unused ones are H or OH. Bridge positions count the residues as written; N and C are the ends. Square brackets hold non-standard residues; d marks the D form. Peptide text beside a SMILES is read from it. Orn = NCCC[C@H](N)C(=O)O; X1 = O=C(CCC[*:2])[*:1]; Mpa = O=C(O)CCS

As a reminder, the IC50 is the concentration needed to halve the response being measured. For orientation: inhibition means the relative decrease from the control value, in per cent. Broadly, the % Inhibition is the relative decrease from the control value, in per cent.

In this test the target is T1, Human recombinant PTEN (Homo sapiens, UniProt P60484).
T1 construct: host or cells: Escherichia coli
T1 sequence (P60484 whole entry): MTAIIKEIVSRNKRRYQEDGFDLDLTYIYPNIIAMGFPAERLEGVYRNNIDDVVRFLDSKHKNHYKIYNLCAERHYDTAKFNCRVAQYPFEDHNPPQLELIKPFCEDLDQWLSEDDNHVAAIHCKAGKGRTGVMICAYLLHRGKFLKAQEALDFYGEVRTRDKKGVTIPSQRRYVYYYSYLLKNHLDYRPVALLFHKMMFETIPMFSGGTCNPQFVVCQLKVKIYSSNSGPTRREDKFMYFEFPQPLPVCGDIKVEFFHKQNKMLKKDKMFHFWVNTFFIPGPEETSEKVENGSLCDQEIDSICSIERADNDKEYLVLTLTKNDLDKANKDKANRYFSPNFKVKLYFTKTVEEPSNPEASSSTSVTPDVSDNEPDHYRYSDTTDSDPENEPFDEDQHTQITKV
Nature of the test: PTEN inhibitor screen: conversion of DiFMUP to DiFMU by recombinant PTEN, spectrofluorometric. The format is biochemical. Here is the method:
Candidate PTEN inhibitor compounds were identified and screened for PTEN inhibition in vitro. Human recombinant PTEN purified from Escherichia coli was assayed for conversion of synthetic phosphotyrosine analog 6,8-difluoro-4-methylumbelliferyl phosphate (DiFMUP) to 6,8-difluoro-7-hydroxy-4-methylcoumarin (DiFMU) in the presence of the various candidate PTEN inhibitors. The reaction was carried out at 37° C. for 1 hour in a reaction mixture containing 100 μM of DiFMUP, 50 mM Tris-HCl (pH 8.5), 0.01% bovine serum albumin, 1 mM dithiothreitol, and 2 mM ethylenediaminetetraacetic acid. PTEN activity was measured by spectrofluorometric quantitation of increasing DiFMU over time.

The mark [1] stands for this setting: 100 μM DiFMUP, 37° C., 1 hour, pH 8.5, read-out: IC50.
The mark [2] stands for this setting: candidate PTEN inhibitor at 10 μM, 100 μM DiFMUP, 37° C., 1 hour, pH 8.5, read-out: % Inhibition.
Where [3] appears, read: candidate PTEN inhibitor at 10 μM, 100 μM DiFMUP, 37° C., 1 hour, pH 8.5.

`C[C@@H]1C/C=C/C=C/C=C/C=C/[C@H](O[C@@H]2O[C@H](C)[C@@H](O)[C@H](N)[C@@H]2O)C[C@@H]2O[C@](O)(C[C@@H](O)C[C@H]3O[C@@H]3/C=C/C(=O)O1)C[C@H](O)[C@H]2C(=O)O` [natamycin]: the half-inhibitory concentration (IC50) under setting [1] was over 10 µM. Besides, under setting [2], the inhibition at 10 µM was determined as 3%.
Turning to `C[C@H](N)C(=O)NCC(=O)N[C@H]1CSSC[C@@H](C(=O)O)NC(=O)[C@H](CO)NC(=O)[C@H]([C@@H](C)O)NC(=O)[C@H](Cc2ccccc2)NC(=O)[C@H]([C@@H](C)O)NC(=O)[C@H](CCCCN)NC(=O)[C@H](Cc2c[nH]c3ccccc23)NC(=O)[C@H](Cc2ccccc2)NC(=O)[C@H](Cc2ccccc2)NC(=O)[C@H](CC(N)=O)NC(=O)[C@H](CCCCN)NC1=O` [somatostatin], the half-inhibitory concentration (IC50) was over 10 µM. Further, where the note is “pH 8.5”, the inhibition at 10 µM stood at 5%.
Consider `CO[C@H]1C[C@@H]2CC[C@@H](C)[C@@](O)(O2)C(=O)C(=O)N2CCCC[C@H]2C(=O)O[C@H]([C@H](C)C[C@@H]2CC[C@@H](O)[C@H](OC)C2)CC(=O)[C@H](C)/C=C(\C)[C@@H](O)[C@@H](OC)C(=O)[C@H](C)C[C@H](C)/C=C/C=C/C=C/1C` [sirolimus], for which, under setting [1], the IC50 was over 10 µM. The inhibition at 10 µM under setting [2] turned out to be 3%.
Take `Clc1ccc(C(c2ccccc2Cl)C(Cl)Cl)cc1` (stereo not shown) [mitotane]: the IC50 under setting [1] was over 10 µM. In addition, the inhibition at 10 µM under setting [2] is 13%.
For the compound `CCC1=C[C@@H]2CN(C1)Cc1c([nH]c3ccccc13)[C@@](C(=O)OC)(c1cc3c(cc1OC)N(C)[C@H]1[C@@](O)(C(=O)OC)[C@H](OC(C)=O)[C@]4(CC)C=CCN5CC[C@]31[C@@H]54)C2` [vinorelbine], the IC50 under setting [1] is over 10 µM. For the same compound, the inhibition at 10 µM under setting [2] was found to be 19%.
Take Verteporfin: under setting [1], the concentration for half-maximal inhibition (IC50) was 5.71 µM. For the same compound, the “% Inhibition” value under setting [3] is given as 98%.
With `CO[C@H]1O[C@H](COS(=O)(=O)O)[C@@H](O[C@@H]2O[C@@H](C(=O)O)[C@@H](O[C@H]3O[C@H](COS(=O)(=O)O)[C@@H](O[C@@H]4O[C@H](C(=O)O)[C@@H](O[C@H]5O[C@H](COS(=O)(=O)O)[C@@H](O)[C@H](O)[C@H]5NS(=O)(=O)O)[C@H](O)[C@H]4O)[C@H](OS(=O)(=O)O)[C@H]3NS(=O)(=O)O)[C@H](O)[C@H]2OS(=O)(=O)O)[C@H](O)[C@H]1NS(=O)(=O)O` [Fondaparinux], the IC50 under setting [1] was 2.77 µM. Also, the inhibition at 10 µM under setting [2] is 80%.
Regarding `C#C[C@]1(O)CC[C@H]2[C@@H]3CCC4=CC(=O)CC[C@@H]4[C@H]3C(=C)C[C@@]21CC` [etonogestrel], the IC50 under setting [1] was over 10 µM. In addition, the inhibition at 10 µM under setting [2] stood at 2%.
The matching figures for `Cc1ccccc1-c1cc(N2CCN(C)CC2)ncc1N(C)C(=O)C(C)(C)c1cc(C(F)(F)F)cc(C(F)(F)F)c1` [netupitant]: over 10 µM and 12%.
The matching figures for `O=C1CCCC(=O)C1C(=O)c1ccc(C(F)(F)F)cc1[N+](=O)[O-]` [nitisinone]: over 10 µM and 1%.
Take `CCc1c(Cl)c(O)c(Cl)c(O)c1C(=O)O[C@H]1[C@H](O)[C@H](OC)[C@H](OC/C2=C\C=C\C[C@H](O)/C(C)=C/[C@H](CC)[C@@H](O[C@@H]3OC(C)(C)[C@@H](OC(=O)C(C)C)[C@H](O)[C@@H]3O)/C(C)=C/C(C)=C/C[C@@H]([C@@H](C)O)OC2=O)O[C@@H]1C` [fidaxomicin]: the IC50 under setting [1] is over 10 µM. Further, the inhibition at 10 µM under setting [2] worked out at 11%.
With `O=C(OC[C@H]1O[C@@H](OC(=O)c2cc(O)c(O)c(OC(=O)c3cc(O)c(O)c(O)c3)c2)[C@H](OC(=O)c2cc(O)c(O)c(OC(=O)c3cc(O)c(O)c(O)c3)c2)[C@@H](OC(=O)c2cc(O)c(O)c(OC(=O)c3cc(O)c(O)c(O)c3)c2)[C@@H]1OC(=O)c1cc(O)c(O)c(OC(=O)c2cc(O)c(O)c(O)c2)c1)c1cc(O)c(O)c(OC(=O)c2cc(O)c(O)c(O)c2)c1` [tannic acid], the IC50 under setting [1] stood at 0.34 µM. For the same compound, under setting [2], the inhibition at 10 µM stood at 92%.
Consider `CC1(C)C(/C=C/C=C/C=C/C=C2\N(CCCCS(=O)(=O)O)c3ccc4ccccc4c3C2(C)C)=[N+](CCCCS(=O)(=O)[O-])c2ccc3ccccc3c21` [indocyanine green acid form], for which, under setting [1], the IC50 worked out at 2.96 µM. Further, the inhibition at 10 µM under setting [2] was determined as 74%.
The matching figures for `CC[C@H](C)[C@@H]1NC(=O)[C@H](Cc2ccc(OC)cc2)NC(=O)CCCSC[C@@H](C(=O)N2CCC[C@H]2C(=O)N[C@@H](CC(C)C)C(=O)NCC(N)=O)NC(=O)[C@H](CC(N)=O)NC(=O)[C@H](CCC(N)=O)NC1=O` [carbetocin] (Y(Me)IQNCPLG-NH2; linker N-5 via X1): over 10 µM and 1%.
In the same order, the values of `CC(=O)O[C@H]1C[C@@H]2CC[C@@H]3[C@H](CC[C@@]4(C)[C@H]3C[C@H]([N+]3(C)CCCCC3)[C@@H]4OC(C)=O)[C@@]2(C)C[C@@H]1[N+]1(C)CCCCC1` [pancuronium] are over 10 µM and 11%.
For `CCOc1ccc(C[C@H]2NC(=O)CCSSC[C@@H](C(=O)N3CCC[C@H]3C(=O)N[C@@H](CCCN)C(=O)NCC(N)=O)NC(=O)[C@H](CC(N)=O)NC(=O)[C@H]([C@@H](C)O)NC(=O)[C@H]([C@@H](C)CC)NC2=O)cc1` [atosiban] ([Mpa][dY](Et)ITNCP[Orn]G-NH2; disulfide 1-6), the half-maximal inhibitory concentration (IC50) is over 10 µM. Moreover, the inhibition at 10 µM under setting [2] was 12%.
As to `COc1ccc(CC2c3cc(OC)c(OC)cc3CC[N+]2(C)CCC(=O)OCCCCCOC(=O)CC[N+]2(C)CCc3cc(OC)c(OC)cc3C2Cc2ccc(OC)c(OC)c2)cc1OC` (stereo not shown) [atracurium besylate], under setting [1], the IC50 was over 10 µM. Besides, under setting [2], the inhibition at 10 µM turned out to be 16%.
Consider `CO[C@H]1C[C@@H]2CC[C@@H](C)[C@@](O)(O2)C(=O)C(=O)N2CCCC[C@H]2C(=O)O[C@H]([C@H](C)C[C@@H]2CC[C@@H](OCCO)[C@H](OC)C2)CC(=O)[C@H](C)/C=C(\C)[C@@H](O)[C@@H](OC)C(=O)[C@H](C)C[C@H](C)/C=C/C=C/C=C/1C` [Everolimus], for which the IC50 under setting [1] was over 10 µM. The inhibition at 10 µM under setting [2] amounted to 33%.
For the compound `Cc1cc2nc3c(=O)[nH]c(=O)nc-3n(C[C@H](O)[C@H](O)[C@H](O)COP(=O)(O)OP(=O)(O)OC[C@H]3O[C@@H](n4cnc5c(N)ncnc54)[C@H](O)[C@@H]3O)c2cc1C` [flavin adenine dinucleotide], the IC50 under setting [1] is over 10 µM. Moreover, the inhibition at 10 µM under setting [2] was 13%.
The matching figures for `Cc1cc(-c2ccc(/N=N/c3c(S(=O)(=O)O)cc4cc(S(=O)(=O)O)cc(N)c4c3O)c(C)c2)ccc1/N=N/c1c(S(=O)(=O)O)cc2cc(S(=O)(=O)O)cc(N)c2c1O` [trypan blue free acid]: 4.41 µM and 79%.
Turning to `CCC[C@H](NC(=O)[C@@H]1[C@H]2CCC[C@H]2CN1C(=O)[C@@H](NC(=O)[C@@H](NC(=O)c1cnccn1)C1CCCCC1)C(C)(C)C)C(=O)C(=O)NC1CC1` [telaprevir], the IC50 was over 10 µM. The inhibition at 10 µM (pH 8.5) stood at 3%.
Consider `O=C(O)CN(CC(=O)O)Cc1cc2c(cc1O)Oc1cc(O)c(CN(CC(=O)O)CC(=O)O)cc1C21OC(=O)c2ccccc21` [Oftasceine], for which, under setting [1], the IC50 is over 10 µM. The inhibition at 10 µM under setting [2] came to 37%.
As to `CC(C)c1nc(CN(C)C(=O)N[C@@H](CCN2CCOCC2)C(=O)N[C@H](CC[C@H](Cc2ccccc2)NC(=O)OCc2cncs2)Cc2ccccc2)cs1` [Cobicistat], under setting [1], the IC50 is over 10 µM. The inhibition at 10 µM under setting [2] is 24%.
Regarding Cyanocobalamin, under setting [1], the IC50 was 3.08 µM. In addition, the “% Inhibition” value under setting [3] was found to be 85%.
The matching figures for hyaluronic acid: over 10 µM and 2%.
Turning to `C=C1CC[C@H]2[C@@H](/C=C(\C)C(=O)[C@@]3(OC(C)=O)C[C@H](C)[C@H](OC(=O)c4ccccc4)[C@@H]3[C@H]1OC(C)=O)C2(C)C` [diacetyl benzoyl lathyrol], the IC50 under setting [1] is over 10 µM. In addition, under setting [3], the “% Inhibition” value worked out at 25%.
As to `CC(C)c1c(C(=O)Nc2ccccc2)c(-c2ccccc2)c(-c2ccc(F)cc2)n1CC[C@@H](O)C[C@@H](O)CC(=O)O` [atorvastatin], under setting [1], the concentration for half-maximal inhibition (IC50) is over 10 µM. Also, the inhibition at 10 µM under setting [2] worked out at 4%.
With `CCCCCCCCCCCCCC(=O)OCC(COP(=O)(O)OCC(O)CO)OC(=O)CCCCCCCCCCCCC` (racemic) [DL-dimyristoylphosphatidylglycerol], the IC50 under setting [1] came to 3.99 µM. For the same compound, the “% Inhibition” value under setting [3] was determined as 71%.
The matching figures for Candicidin: 1.63 µM and 91%.
Turning to `C[C@@H]1CC(=O)NN=C1c1ccc(NN=C(C#N)C#N)cc1` [Levosimendan], the IC50 under setting [1] was over 10 µM. Also, the inhibition at 10 µM under setting [2] was 24%.
For `CC(C)(C)CC(C)(C)c1cc(Cc2cc(C(C)(C)CC(C)(C)C)cc(-n3nc4ccccc4n3)c2O)c(O)c(-n2nc3ccccc3n2)c1` [bisoctrizole], under setting [1], the IC50 was over 10 µM. Moreover, under setting [2], the inhibition at 10 µM was 5%.
For the compound `CCCCCCCC/C=C\CCCCCCCC(=O)O[C@H](COC(=O)CCCCCCCCCCCCCCC)COP(=O)(O)OCC(O)CO` (mixture of isomers) [1-palmitoyl-2-oleoyl-sn-glycero-3-(phospho-rac-(1-glycerol))], under setting [1], the IC50 stood at 1.79 µM. Moreover, the inhibition at 10 µM under setting [2] was 85%.
